Test results taken from ChEMBL document CHEMBL5346906, “Discovery of novel tranylcypromine-based derivatives as LSD1 inhibitors for gastric cancer treatment” (Eur J Med Chem, 2023).
The source made the active and inactive calls. No cut-off for these calls is given here.

Tests used:
MGC-803 [1] = assay: Induction of apoptosis in human MGC-803 cells assessed as viable cells at 16 micromol/L for 48 hrs by annexinV-FITC/PI staining based flow cytometric analysis (reference value: 95.54%); type: functional; conditions: MGC-803, 48 h, dose 16 µmol/L, read-out: Activity
MGC-803 [2] = assay: Induction of mitochondrial membrane potential depolarization in human MGC-803 assessed as necrotic cells measured at 24 micromol/L for 20 mins by JC-1 staining based flow cytometric analysis (reference value: 0.00%); type: functional; conditions: dose 24 µmol/L, at 24 µM
MGC-803 [3] = assay: Induction of mitochondrial membrane potential depolarization in human MGC-803 assessed as early apoptotic cells measured at 16 micromol/L for 20 mins by JC-1 staining based flow cytometric analysis (reference value: 4.52%); type: functional; conditions: dose 16 µmol/L, at 16 µM
MGC-803 [4] = assay: Induction of apoptosis in human MGC-803 cells assessed as early apoptotic cells at 24 micromol/L for 48 hrs by annexinV-FITC/PI staining based flow cytometric analysis (reference value: 2.92%); type: functional; conditions: dose 24 µmol/L, at 24 µM
MGC-803 [5] = assay: Induction of mitochondrial membrane potential depolarization in human MGC-803 assessed as late apoptotic cells measured at 16 micromol/L for 20 mins by JC-1 staining based flow cytometric analysis (reference value: 94.98%); type: functional; conditions: dose 16 µmol/L, at 16 µM
MGC-803 [6] = assay: Induction of mitochondrial membrane potential depolarization in human MGC-803 assessed as viable cells measured at 16 micromol/L for 20 mins by JC-1 staining based flow cytometric analysis (reference value: 0.40%); type: functional; conditions: MGC-803, 20 min, dose 16 µmol/L, read-out: Activity
MGC-803 [7] = assay: Induction of apoptosis in human MGC-803 cells assessed as early apoptotic cells at 16 micromol/L for 48 hrs by annexinV-FITC/PI staining based flow cytometric analysis (reference value: 2.92%); type: functional; conditions: dose 16 µmol/L, at 16 µM
[8] = target: T1, Lysine-specific histone demethylase 1A (Homo sapiens, UniProt O60341); assay: Inhibition of recombinant LSD1 (unknown origin) preincubated for 10 mins in presence of H3K4Me2 measured after 30 mins by measuring fluorescence intensity by fluorescence based microplate reader
MGC-803 [9] = assay: Antiproliferative activity against human MGC-803 cells incubated for 48 hrs measured by MTT assay; type: functional, cell-based; conditions: MGC-803, 48 h
[10] = target: T1, Lysine-specific histone demethylase 1A; assay: Inhibition of LSD1 in human MGC-803 cells assessed as increase in methylation of H3K9 at 24 micromol/L; type: cell-based; conditions: dose 24.0 µmol/L
MGC-803 [11] = assay: Induction of mitochondrial membrane potential depolarization in human MGC-803 assessed as necrotic cells measured at 8 micromol/L for 20 mins by JC-1 staining based flow cytometric analysis (reference value: 0.00%); type: functional; conditions: dose 8 µmol/L, at 8 µM
[12] = target: T2, Amine oxidase [flavin-containing] B (Homo sapiens, UniProt P27338); assay: Inhibition of MAO-B (unknown origin) measured by MAO-GloTM method
T2 sequence (P27338 whole entry): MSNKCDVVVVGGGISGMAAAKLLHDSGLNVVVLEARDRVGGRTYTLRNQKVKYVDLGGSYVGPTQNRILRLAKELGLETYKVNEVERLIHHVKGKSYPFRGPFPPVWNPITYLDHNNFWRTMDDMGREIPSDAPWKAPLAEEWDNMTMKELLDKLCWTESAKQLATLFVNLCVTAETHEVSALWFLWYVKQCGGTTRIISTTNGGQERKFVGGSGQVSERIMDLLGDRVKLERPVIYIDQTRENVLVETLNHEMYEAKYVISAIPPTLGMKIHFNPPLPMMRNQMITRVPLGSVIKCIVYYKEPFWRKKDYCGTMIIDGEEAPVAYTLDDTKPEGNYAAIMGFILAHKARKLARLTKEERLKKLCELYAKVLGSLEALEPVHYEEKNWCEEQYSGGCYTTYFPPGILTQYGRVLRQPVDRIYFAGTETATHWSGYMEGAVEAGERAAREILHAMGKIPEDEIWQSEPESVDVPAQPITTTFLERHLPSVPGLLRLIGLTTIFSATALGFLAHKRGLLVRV

MGC-803 [13] = assay: Induction of mitochondrial membrane potential depolarization in human MGC-803 assessed as viable cells measured at 24 micromol/L for 20 mins by JC-1 staining based flow cytometric analysis (reference value: 0.40%); type: functional; conditions: MGC-803, 20 min, dose 24 µmol/L, read-out: Activity
MGC-803 [14] = assay: Induction of apoptosis in human MGC-803 cells assessed as morphological change of cells incubated at 8 to 24 micromol/L for 48 hrs measured by bright field microscopic analysis; type: functional, cell-based; conditions: dose 8-24 µmol/L
MGC-803 [15] = assay: Induction of apoptosis in human MGC-803 cells assessed as necrotic cells at 16 micromol/L for 48 hrs by annexinV-FITC/PI staining based flow cytometric analysis (reference value: 0.22%); type: functional; conditions: dose 16 µmol/L, at 16 µM
[16] = target: T1, Lysine-specific histone demethylase 1A; assay: Inhibition of LSD1 in human MGC-803 cells assessed as increase in mono methylation of H3K9; type: cell-based; conditions: dose 0-24 µmol/L
MGC-803 [17] = assay: Induction of apoptosis in human MGC-803 cells assessed as necrotic cells at 24 micromol/L for 48 hrs by annexinV-FITC/PI staining based flow cytometric analysis (reference value: 0.22%); type: functional; conditions: dose 24 µmol/L, at 24 µM
MGC-803 [18] = assay: Inhibition of cell migration in human MGC-803 cells assessed as scratch width decrease treated at 2 to 6 micromol/L for 48 hrs measured by transwell assay based crystal violet staining analysis; type: functional; conditions: dose 2-6 µmol/L
MGC-803 [19] = assay: Inhibition of cell migration in human MGC-803 cells assessed as scratch width decrease treated at 2 to 6 micromol/L for 24 to 48 hrs measured by wound healing assay; type: functional, cell-based; conditions: dose 2-6 µmol/L, time 24-48 hrs
MGC-803 [20] = assay: Antiproliferative activity against human MGC-803 cells assessed as reduction in stemness of cells by measuring tumor ball diameter at 0 to 8 uM after 48 hrs measured after 5 days using 3D-spheroid assay; type: functional, cell-based; conditions: dose 0-8 µM
MGC-803 [21] = assay: Induction of apoptosis in human MGC-803 cells assessed as viable cells at 24 micromol/L for 48 hrs by annexinV-FITC/PI staining based flow cytometric analysis (reference value: 95.54%); type: functional; conditions: MGC-803, 48 h, dose 24 µmol/L, read-out: Activity
[22] = target: T1, Lysine-specific histone demethylase 1A; assay: Inhibition of LSD1 in human MGC-803 cells assessed as increase in methylation of H3K4 at 24 micromol/L; type: cell-based; conditions: dose 24.0 µmol/L
HCT-116 = assay: Antiproliferative activity against human HCT-116 cells incubated for 48 hrs measured by MTT assay; type: functional, cell-based; conditions: HCT-116, 48 h
[23] = target: T1, Lysine-specific histone demethylase 1A; assay: Inhibition of LSD1 in human MGC-803 cells assessed as increase in dimethylation of H3K9; type: cell-based; conditions: dose 0-24 µmol/L
[24] = target: T1, Lysine-specific histone demethylase 1A; assay: Binding affinity to LSD1 in human MGC-803 cells assessed as thermal solubility measured at 100 uM preincubated for 30 mins and incubated at 42 to 60 degreeC for 3 mins followed by cooled for 180 secs cycle repeated 3 times by CETSA based Western blotting analysis; type: cell-based; conditions: time 48.0 min
MGC-803 [25] = assay: Induction of apoptosis in human MGC-803 cells assessed as decrease in capase3 expression at 8 to 24 micromol/L; type: functional, cell-based; conditions: dose 8-24 µmol/L
MGC-803 [26] = assay: Induction of mitochondrial membrane potential depolarization in human MGC-803 assessed as early apoptotic cells measured at 24 micromol/L for 20 mins by JC-1 staining based flow cytometric analysis (reference value: 4.52%); type: functional; conditions: dose 24 µmol/L, at 24 µM

`O=C(c1cccc(CN[C@@H]2C[C@H]2c2ccc(F)c(F)c2)c1)N1CCN(c2ccc(Cl)c(Cl)c2)CC1` gave a viability at 16 µM (MGC-803 [1]) of 57.5%, an Activity (MGC-803 [2]) of 0.12% and an Activity (MGC-803 [3]) of 17.64%. The Activity (MGC-803 [4]) was 37.89%, the Activity (MGC-803 [5]) was 81% and the viability at 16 µM (MGC-803 [6]) was 1.34%. The Activity (MGC-803 [7]) was 31.69%, the IC50 [8] was 0.0253 µM and the IC50 (MGC-803 [9]) was 14.3 µM. The inhibition [10] was “Active”, the Activity (MGC-803 [11]) was 0% and the IC50 [12] was 3.82 µM. For the same compound, the viability at 24 µM (MGC-803 [13]) was 1.28%, the Activity (MGC-803 [14]) was “Active” and the Activity (MGC-803 [15]) was 0.35%. For the same compound, the inhibition [16] was “Dose-Dependent Effect”, the Activity (MGC-803 [17]) was 0.38% and the inhibition (MGC-803 [18]) was “Active”. The inhibition (MGC-803 [19]) was “Active”, the Activity (MGC-803 [20]) was “inactive” and the viability at 24 µM (MGC-803 [21]) was 51.8%. The inhibition [22] was “Active”, the IC50 (HCT-116) was 16.3 µM and the inhibition [23] was “Dose-Dependent Effect”. The Activity [24] was “Active”, the Activity (MGC-803 [25]) was “Active” and the Activity (MGC-803 [26]) was 29.22%.
